Measured values as given in US7345033B2, “Carbamoyl-and thiocarbamoyl-phosphonates and pharmaceutical compositions comprising them” (Yissum Research Development Company of the Hebrew …, priority 2003, dated 2008).
Where two headings read alike, the source gives them in different places.

Experiments:
[1] = tested on: cancer cells; assay: Matrigel chemoinvasion assay (Boyden chambers); type: cell-based; settings: read-out: Chemoinvasion % inhibition at 50 μM, 6 h
Text: Matrigel Chemoinvasion Assay
This assay measures in vitro the potency of the compounds to repress the invasiveness of cancer cells, by inhibiting the MMPs produced by them. The assay uses a reconstituted basement membrane preparation, which is similar to the natural basement membranes that the tumor cells have to cross, in order to disseminate. The compounds examined have been added to the invasion chambers at various concentrations, and the resulted invasion was compared to untreated preparations.
Description of the of the Matrigel Chemoinvasion Experiment
a) The chemoinvasion assays were performed in Boyden chambers. Matrigel (25 μg) was dried on a polycarbonated filter (PVP free, Nucleopore). Fibroblast conditioned medium (obtained from confluent NIH-3T3 cells cultured in serum free DMEM) is used as the chemoattractant. […] The chambers were incubated in a humidified incubator at 37° C. in 5% CO2/95% air atmosphere for 6 h. The cells, which traversed the Matrigel layer and attached to the lower surface of the filter, were stained with Diff Quick (American Scientific Products) and counted.
The various compounds were examined as potential inhibitors at three concentrations: 100 μM, 50 μM and 10 μM.

[2] = tested on: Endothelial cells; assay: Endothelial cell capillary tube formation; type: cell-based; settings: read-out: Capillary Formation Inhibition % At 50 μM
Text: Endothelial Cell Capillary Tube Formation
Some of the compounds were examined as to their potency to inhibit capillary formation, which is an in vitro model of angiogenesis, an essential step in the development of primary tumor and metastatic lesions. Endothelial cell migration to the newly formed tumor is the initial phase of angiogenesis, and is dependent on MMP expression. By using this assay that measures endothelial cell tube formation, the effects of some carbamoylphosphonates on angiogenesis at concentrations ranging from 100-5 μM were evaluated.
Description of the Endothelial Cell Capillary Tube Formation Experiment
Endothelial cells are harvested by 1 mM EDTA, and added to a Matrigel layer in a 24 well plate at 50,000 cells per well. After attachment, culture media (1 ml) is added and the plate is incubated as a monolayer culture. The plates are analyzed hourly using Hoffinan optics. This assay is used to evaluate inhibitory factors or stimulatory factors on capillary like structure formation, which may be added into the culture media.

[3] = tested on: murine melanoma; assay: Tumor growth and metastasis in vivo, murine melanoma model; parameters: species or system mice; settings: for inhibition in vivo at 50 mg/kg: Mus musculus, 504 h; for oral bioavailability: values equal the PO % reduction in murine melanoma of Table 1
Text: Tumor Growth and Metastasis in Animal Models—in vivo Test
The abilities of the novel carbamoylphosphonates to inhibit the formation of metastatic lesions in vivo were examined in the murine melanoma model both by intraperitoneal (IP) and peroral (PO) administration. […] This is especially important, since oral administration is the most convenient one for the patient, especially for long term chronic treatments such as those envisaged for drugs that are the subject of this application.

[4] = target: MMP-3 (Homo sapiens, UniProt P08254); assay: Selectivity towards different MMPs: MMP-3; type: biochemical; settings: Table 2
Sequence of MMP-3 (P08254 100-477, species assumed): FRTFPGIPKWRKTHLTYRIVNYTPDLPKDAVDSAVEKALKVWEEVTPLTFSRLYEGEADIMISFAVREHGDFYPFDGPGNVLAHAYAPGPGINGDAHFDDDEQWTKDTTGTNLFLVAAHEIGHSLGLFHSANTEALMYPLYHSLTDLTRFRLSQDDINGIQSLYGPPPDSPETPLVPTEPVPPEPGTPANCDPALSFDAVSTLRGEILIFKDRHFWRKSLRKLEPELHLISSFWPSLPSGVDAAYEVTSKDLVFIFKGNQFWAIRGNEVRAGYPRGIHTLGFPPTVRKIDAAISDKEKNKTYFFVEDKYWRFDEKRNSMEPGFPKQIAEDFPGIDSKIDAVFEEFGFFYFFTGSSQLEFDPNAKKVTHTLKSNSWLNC

[5] = target: T1, recombinant MMP-9 (Homo sapiens, UniProt P14780); assay: MMP inhibitory potency in vitro, succinylated-gelatin colorimetric assay; type: biochemical
T1 construct: purchased
T1 sequence (P14780 94-707, species assumed): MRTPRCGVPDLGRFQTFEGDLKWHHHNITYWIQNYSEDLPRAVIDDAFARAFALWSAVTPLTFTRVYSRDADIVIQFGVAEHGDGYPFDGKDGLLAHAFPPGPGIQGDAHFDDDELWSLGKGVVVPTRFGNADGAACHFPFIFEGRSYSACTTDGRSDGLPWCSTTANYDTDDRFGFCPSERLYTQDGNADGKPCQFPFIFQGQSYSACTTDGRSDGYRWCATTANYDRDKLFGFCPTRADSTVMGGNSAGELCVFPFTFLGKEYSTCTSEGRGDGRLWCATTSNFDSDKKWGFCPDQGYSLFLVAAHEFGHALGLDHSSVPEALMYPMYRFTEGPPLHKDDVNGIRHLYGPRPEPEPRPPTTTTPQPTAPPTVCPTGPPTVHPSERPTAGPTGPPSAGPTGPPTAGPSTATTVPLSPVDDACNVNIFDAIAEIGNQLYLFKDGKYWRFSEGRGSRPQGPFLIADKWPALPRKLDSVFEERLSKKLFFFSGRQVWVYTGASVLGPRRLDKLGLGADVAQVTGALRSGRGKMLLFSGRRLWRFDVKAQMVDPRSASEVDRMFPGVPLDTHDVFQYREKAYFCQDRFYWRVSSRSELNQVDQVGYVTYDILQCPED
Description: (§1) Determination of MMP Inhibitory Potency (IC50 Values) in vitro
(§2) The commercially available recombinant MMP-2 and MMP-9 enzymes were incubated with succinylated-gelatin at four different concentrations for 3 h. The examined compounds were added at four to six different concentrations to the recombinant enzymes and the inhibitory potencies were expressed in a colorimetric change measured by an ELISA reader. The inhibitory activity (IC50) was calculated from the kinetic data obtained.

[6] = target: T2, recombinant MMP-2 (Homo sapiens, UniProt P08253); assay: as above; type: biochemical; settings: for times more active on MMP-2 than its analog or isomer: 11 vs 6, 9 vs 9a, 10 vs 10a, 11 vs 11a
T2 construct: purchased
T2 sequence (P08253 110-660): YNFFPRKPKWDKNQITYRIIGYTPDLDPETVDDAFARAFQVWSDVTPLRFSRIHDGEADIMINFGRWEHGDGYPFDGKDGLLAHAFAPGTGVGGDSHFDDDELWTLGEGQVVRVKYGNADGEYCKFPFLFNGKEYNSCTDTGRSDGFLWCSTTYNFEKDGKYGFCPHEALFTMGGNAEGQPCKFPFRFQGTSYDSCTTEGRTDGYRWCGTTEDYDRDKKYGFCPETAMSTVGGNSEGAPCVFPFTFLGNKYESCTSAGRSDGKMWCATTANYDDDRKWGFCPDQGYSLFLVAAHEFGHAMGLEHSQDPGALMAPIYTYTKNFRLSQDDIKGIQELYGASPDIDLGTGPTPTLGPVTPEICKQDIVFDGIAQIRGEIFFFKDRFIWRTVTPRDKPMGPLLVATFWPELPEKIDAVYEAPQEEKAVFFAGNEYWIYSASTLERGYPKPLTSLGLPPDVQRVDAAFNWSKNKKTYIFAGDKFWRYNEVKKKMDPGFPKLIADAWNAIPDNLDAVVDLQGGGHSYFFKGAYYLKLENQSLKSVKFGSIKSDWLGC
Description: as §1, §2

[7] = target: MMP-8 (Homo sapiens, UniProt P22894); assay: Selectivity towards different MMPs: MMP-8; type: biochemical; settings: Table 2
Sequence of MMP-8 (P22894 101-467, species assumed): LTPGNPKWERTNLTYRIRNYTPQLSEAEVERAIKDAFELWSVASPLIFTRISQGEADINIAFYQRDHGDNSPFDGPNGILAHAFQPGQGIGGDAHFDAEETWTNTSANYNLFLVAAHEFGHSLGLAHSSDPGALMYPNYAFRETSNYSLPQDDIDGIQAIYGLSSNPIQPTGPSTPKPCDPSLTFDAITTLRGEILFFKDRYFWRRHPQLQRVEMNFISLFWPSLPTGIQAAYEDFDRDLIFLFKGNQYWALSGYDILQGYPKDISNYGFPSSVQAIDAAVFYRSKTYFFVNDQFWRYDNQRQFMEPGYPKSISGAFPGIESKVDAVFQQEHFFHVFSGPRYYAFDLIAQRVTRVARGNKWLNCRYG

[8] = target: T3, MMP-1 (Homo sapiens, UniProt P03956); assay: Selectivity towards different MMPs: MMP-1; type: biochemical; settings: Table 2
T3 sequence (P03956 100-469): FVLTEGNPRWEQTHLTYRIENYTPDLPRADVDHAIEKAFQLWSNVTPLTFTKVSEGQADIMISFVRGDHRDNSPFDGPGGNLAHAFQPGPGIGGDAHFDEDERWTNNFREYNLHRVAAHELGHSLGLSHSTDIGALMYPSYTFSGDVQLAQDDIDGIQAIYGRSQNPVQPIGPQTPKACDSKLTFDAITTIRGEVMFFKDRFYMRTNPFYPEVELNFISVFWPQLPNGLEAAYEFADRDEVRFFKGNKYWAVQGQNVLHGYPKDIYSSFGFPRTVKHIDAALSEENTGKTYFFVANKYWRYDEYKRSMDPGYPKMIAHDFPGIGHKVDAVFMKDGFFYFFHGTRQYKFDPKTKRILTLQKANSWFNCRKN

[9] = Acute in vivo toxicity in healthy mice; settings: daily for two weeks at 50, 250 and 500 mg/kg
Text: Determination of Acute in vivo Toxicity of Representative Carbamoylphosphonates

[10] = ip, read-out: In vivo murine melanoma % reduction IP
[11] = po, read-out: In vivo murine melanoma % reduction PO

| Structure (SMILES) | melting point | inhibition at 50 µM [2] | IC50 [4] | IC50 ([6]; Table 1, read-out: MMP-2 IC50) | IC50 [7] | IC50 [8] | inhibition at 50 µM [1] | inhibition in vivo at 50 mg/kg [3, 10] | inhibition in vivo at 50 mg/kg [3, 11] | IC50 [5] | IC50 [6] | also measured |
| --- | --- | --- | --- | --- | --- | --- | --- | --- | --- | --- | --- | --- |
| C[C@@H](NC(=O)P(=O)(O)O)C1CCCCC1 [Compound 9, N—[(R)-1-Cyclohexylethyl]carbamoylphosphonic acid] | 155 to 156 °C | 35% | > 100000 nM | 200 nM | > 100000 nM | > 100000 nM | – | – | – | – | – | inhibition at 50 µM ([1]; 50 μM, Matrigel): 33%; inhibition in vivo at 50 mg/kg ([3]; IP, 50 mg/kg daily for 21 days, lung tumors counted, read-out: In vivo murine melanoma % reduction IP): 68%; inhibition in vivo at 50 mg/kg ([3]; PO, 50 mg/kg daily for 21 days, lung tumors counted, read-out: In vivo murine melanoma % reduction PO): 90%; oral bioavailability [3]: 90%; IC50 ([5]; Table 1, read-out: MMP-9 IC50): ≥ 100 µM; IC50 ([5]; Table 2, read-out: MMP-9 IC50): > 100 µM; times more active on MMP-2 than its analog or isomer [6]: five times more active; IC50 ([6]; Table 2, read-out: MMP-2 IC50): 200 nM |
| O=P(O)(O)C(=S)NCC1CCCCC1 [Compound 8, N-(Cyclohexylmethyl)thiocarbamoylphosphonic acid] | – | 75% | – | – | – | – | 70% | 80% | 80% | 0.015 µM | 15 nM | oral bioavailability [3]: improved oral bioavailability |
| O=C(NCC1CCCCC1)P(=O)(O)O [Compound 5, cyclohexylmethyl carbamoylphosphonic acid] | – | 53% | – | 200 nM | – | – | 50% | 69% | 14% | – | – | oral bioavailability [3]: 14%; IC50 ([5]; Table 1, read-out: MMP-9 IC50): 1 µM |
| O=P(O)(O)C(=S)NC1CCCCC1 [Compound 4, CyclohexylNHCSPO3H2] | – | 38% | – | – | – | – | 50% | 68% | – | > 100 µM | 100 nM | – |
| N[C@H]1CCCC[C@@H]1NC(=O)P(=O)(O)O (relative stereo) [Compound 11a, Trans-2-aminocyclohexylcarbamoyl phosphonic acid] | – | – | 25000 nM | – | 50000 nM | 90000 nM | – | – | – | > 100 µM | 20000 nM | – |
| O=C(NC1CCCC1)P(=O)(O)O [Compound 1, CyclopentylNHCOPO3H2] | – | 70% | – | 80 nM | – | – | 65% | 72% | 71% | – | – | toxicity [9]: toxic at 250 mg/kg and 500 mg/kg doses |
| O=P(O)(O)C(=S)NC1CCCC1 [Compound 2, CyclopentylNHCSPO3H2] | – | – | – | – | – | – | 70% | 56% | 70% | 50 µM | 70 nM | – |
| NCCNC(=O)P(=O)(O)O [Compound 6, H2N(CH2)2NHCOPO3H2] | – | 43% | – | – | – | – | 45% | 57% | – | 2 µM | 800 nM | – |
| O=C(N[C@@H]1C[C@@H]2CC[C@H]1C2)P(=O)(O)O (relative stereo) [Compound 10, N-[endo-2-norbornyl]carbamoylphosphonic acid] | 164 to 165 °C | 30% | > 100000 nM | – | > 100000 nM | > 100000 nM | 25% | 87% | 80% | > 100 µM | 100 nM | IC50 ([5]; read-out: MMP-9 IC50 μM, Table 2): > 100 µM; times more active on MMP-2 than its analog or isomer [6]: 150 times |
| O=C(NC1CCCCC1)P(=O)(O)O [Compound 3, CyclohexylNHCOPO3H2] | – | 50% | – | 3000 nM | – | – | 46% | 64% | – | – | – | – |
| C[C@H](NC(=O)P(=O)(O)O)C1CCCCC1 [Compound 9a] | 167 to 168 °C | – | 100 nM | – | > 100000 nM | 2000 nM | – | – | – | – | – | IC50 ([5]; Table 2, read-out: MMP-9 IC50): 10 µM; IC50 ([6]; Table 2, read-out: MMP-2 IC50): 1000 nM |
| CN(C)CCNC(=O)P(=O)(O)O [Compound 7, Me2N(CH2)2NHCOPO3H2] | – | 75% | – | – | – | – | 66% | 75% | 29% | 20 µM | 30 nM | – |
| O=C(N[C@@H]1C[C@H]2CC[C@@H]1C2)P(=O)(O)O (relative stereo) [Compound 10a, N-[exo-2-norbornyl]carbamoylphosphonic acid] | 170 to 172 °C | – | > 100000 nM | – | > 100000 nM | 1000 nM | – | – | – | > 100 µM | 15000 nM | – |
